In ChEMBL document CHEMBL1201862, “PubChem BioAssay data set” (2004) one finds EC50 and IC50 data, which are given here for three compounds.

Calls of active or inactive are those of the source.

Assay [1] in a line: SAR analysis of small molecule activators of Apaf-1 using a LZ-Caspase-9/Caspase-3 Fluorescent Selectivity assay - Set 2. Type of assay: functional. Conditions: read-out: EC50_Mean.
For assay [2], the target named is T1, Apoptotic protease-activating factor 1 (Homo sapiens, UniProt O14727).
T1 sequence (O14727 whole entry): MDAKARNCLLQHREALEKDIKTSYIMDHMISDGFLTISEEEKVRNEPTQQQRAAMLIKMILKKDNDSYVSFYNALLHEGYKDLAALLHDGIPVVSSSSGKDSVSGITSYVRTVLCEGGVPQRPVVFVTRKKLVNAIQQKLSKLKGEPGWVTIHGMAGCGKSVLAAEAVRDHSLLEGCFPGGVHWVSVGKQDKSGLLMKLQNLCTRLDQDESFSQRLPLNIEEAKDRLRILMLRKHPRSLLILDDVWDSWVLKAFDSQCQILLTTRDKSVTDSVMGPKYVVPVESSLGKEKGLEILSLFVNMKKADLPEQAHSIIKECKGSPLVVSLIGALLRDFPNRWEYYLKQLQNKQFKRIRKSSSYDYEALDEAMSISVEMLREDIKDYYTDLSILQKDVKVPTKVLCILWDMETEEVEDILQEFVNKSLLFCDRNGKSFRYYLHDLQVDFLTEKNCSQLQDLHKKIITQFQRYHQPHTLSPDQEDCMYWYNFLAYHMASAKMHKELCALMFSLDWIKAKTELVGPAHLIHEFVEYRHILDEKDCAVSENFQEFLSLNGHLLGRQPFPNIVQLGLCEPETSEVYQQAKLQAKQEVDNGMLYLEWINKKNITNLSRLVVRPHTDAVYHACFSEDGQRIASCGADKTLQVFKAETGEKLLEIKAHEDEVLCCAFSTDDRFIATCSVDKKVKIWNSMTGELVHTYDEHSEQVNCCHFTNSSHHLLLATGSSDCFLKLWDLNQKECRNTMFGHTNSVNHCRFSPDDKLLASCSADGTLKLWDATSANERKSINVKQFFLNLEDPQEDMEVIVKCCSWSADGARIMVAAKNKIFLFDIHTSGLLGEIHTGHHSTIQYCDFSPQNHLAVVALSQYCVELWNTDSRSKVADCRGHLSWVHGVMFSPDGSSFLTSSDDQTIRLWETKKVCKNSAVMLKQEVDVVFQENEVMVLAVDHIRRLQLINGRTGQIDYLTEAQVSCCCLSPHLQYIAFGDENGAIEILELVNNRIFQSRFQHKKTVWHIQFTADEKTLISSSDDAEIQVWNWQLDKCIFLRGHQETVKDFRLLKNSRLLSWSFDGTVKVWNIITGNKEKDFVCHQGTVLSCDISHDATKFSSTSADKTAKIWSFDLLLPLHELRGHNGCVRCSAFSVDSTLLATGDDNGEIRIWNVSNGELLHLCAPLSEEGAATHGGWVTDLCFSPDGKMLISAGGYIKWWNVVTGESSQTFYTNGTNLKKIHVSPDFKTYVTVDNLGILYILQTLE
In words: SAR analysis of small molecule Activators of Apaf-1 in a Fluorescent assay - set 2. Particulars: read-out: EC50_Mean. Type of assay: functional.

In assay [3] the target is T2, High affinity choline transporter 1 (Homo sapiens, UniProt Q9GZV3).
T2 sequence (Q9GZV3 whole entry): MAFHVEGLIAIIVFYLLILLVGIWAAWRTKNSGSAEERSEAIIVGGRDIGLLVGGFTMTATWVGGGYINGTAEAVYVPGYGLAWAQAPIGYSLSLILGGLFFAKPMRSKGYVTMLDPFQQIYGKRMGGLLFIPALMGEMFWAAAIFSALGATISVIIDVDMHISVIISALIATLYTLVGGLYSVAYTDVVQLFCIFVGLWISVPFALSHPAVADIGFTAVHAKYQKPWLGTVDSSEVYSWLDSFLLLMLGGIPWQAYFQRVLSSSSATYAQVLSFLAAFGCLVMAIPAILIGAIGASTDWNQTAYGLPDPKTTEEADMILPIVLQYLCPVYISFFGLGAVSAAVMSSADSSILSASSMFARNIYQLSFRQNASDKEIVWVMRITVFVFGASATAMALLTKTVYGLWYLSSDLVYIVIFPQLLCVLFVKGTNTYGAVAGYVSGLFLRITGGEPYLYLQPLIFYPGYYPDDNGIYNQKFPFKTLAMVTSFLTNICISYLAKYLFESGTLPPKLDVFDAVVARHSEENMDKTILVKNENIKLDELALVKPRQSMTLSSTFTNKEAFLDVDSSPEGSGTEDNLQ
In words: CHT inhibitors, dose response, cell-based, 5-point CRC, membrane potential dye (AID 504840). Type of assay: functional.

Assay [4] deals with T2, High affinity choline transporter 1. Briefly: CHT inhibitors, dose response, cell-based, 10-point CRC, membrane potential dye (AID 588401).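 Also: membrane potential dye fluorescence of choline-evoked depolarization via CHT.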 In kind it is functional.
Assay [5] can be described thus: cells. Type of assay: functional, cell-based.
For assay [6], the target named is T3, Nuclear receptor subfamily 0 group B member 1 (Homo sapiens, UniProt P51843).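 Also: HEK293T cells transfected with SF-1 and DAX-1 plus StAR promoter luciferase reporter.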
T3 sequence (P51843 whole entry): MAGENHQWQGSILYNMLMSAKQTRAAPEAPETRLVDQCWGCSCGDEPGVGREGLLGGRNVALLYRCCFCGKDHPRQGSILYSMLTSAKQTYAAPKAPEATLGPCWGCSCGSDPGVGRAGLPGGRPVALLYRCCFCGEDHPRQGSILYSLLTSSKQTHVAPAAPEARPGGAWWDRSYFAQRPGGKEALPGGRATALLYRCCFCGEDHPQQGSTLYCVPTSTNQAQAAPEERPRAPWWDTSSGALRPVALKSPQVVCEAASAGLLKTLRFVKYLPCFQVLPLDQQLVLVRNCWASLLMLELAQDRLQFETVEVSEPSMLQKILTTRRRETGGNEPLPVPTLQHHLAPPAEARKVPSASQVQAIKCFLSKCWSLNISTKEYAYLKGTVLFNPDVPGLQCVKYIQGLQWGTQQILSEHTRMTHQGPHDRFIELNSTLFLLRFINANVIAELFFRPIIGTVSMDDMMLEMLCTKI
Type of assay: functional, cell-based.

The target of assay [7] is Melanin-concentrating hormone receptor 1 (Homo sapiens, UniProt Q99705). Briefly: Late-stage fluorescence-based counterscreen for antagonists of the G-protein coupled receptor 7 (GPR7): cell-based dose response assay to identify antagonists of the melanin-concentrating hormone receptor 1 (MCHR1) Set 6. In kind it is functional. On the technique in general: Counterscreens check selectivity or assay interference.
Melanin-concentrating hormone receptor 1, sequence (Q99705 whole entry): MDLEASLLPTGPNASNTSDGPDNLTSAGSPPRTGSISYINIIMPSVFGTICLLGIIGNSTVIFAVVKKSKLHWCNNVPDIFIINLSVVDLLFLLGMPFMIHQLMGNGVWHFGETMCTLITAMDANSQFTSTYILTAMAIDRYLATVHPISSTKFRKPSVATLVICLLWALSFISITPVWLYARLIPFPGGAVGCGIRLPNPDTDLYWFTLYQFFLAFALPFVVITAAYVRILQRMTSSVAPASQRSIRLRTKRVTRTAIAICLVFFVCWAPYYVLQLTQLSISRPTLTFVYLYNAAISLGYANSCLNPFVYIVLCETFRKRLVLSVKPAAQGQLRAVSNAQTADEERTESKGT

Assay [8] has as its target T4, Neuropeptides B/W receptor type 1 (Homo sapiens, UniProt P48145).
T4 sequence (P48145 whole entry): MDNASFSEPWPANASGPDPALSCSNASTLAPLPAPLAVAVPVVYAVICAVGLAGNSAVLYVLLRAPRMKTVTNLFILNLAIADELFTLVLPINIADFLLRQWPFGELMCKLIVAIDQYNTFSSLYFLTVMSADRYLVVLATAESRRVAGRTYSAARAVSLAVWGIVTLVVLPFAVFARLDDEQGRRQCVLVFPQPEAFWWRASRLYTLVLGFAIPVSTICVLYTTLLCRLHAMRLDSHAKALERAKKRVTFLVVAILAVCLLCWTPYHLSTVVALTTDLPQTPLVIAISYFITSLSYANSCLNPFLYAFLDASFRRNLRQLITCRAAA
In words: GPR7 antagonist potency, late-stage follow-up, cell-based, fluorescence, dose response, set 6 (AID 588583). In kind it is functional.

Take `CC(CN1CCOCC1)C(=O)O` (stereo not drawn): the EC50 in assay [1] and in assay [2] was > 100 µM (inactive) each time.

Usually IC50 stands for the concentration that inhibits the measured activity by half. Take `O=C(Nc1c(C(=O)N2CCC(N3CCCCC3)CC2)oc2ccccc12)c1ccc(F)cc1`: the half-inhibitory concentration (IC50) is 0.91 µM (active) in assay [3], 1.63 µM (active) in assay [4], > 67.5 µM (inactive) in assay [5] and > 67.5 µM (inactive) in assay [6].

With `N#CC(c1ccc([N+](=O)[O-])cc1)c1c(Cl)cnn(Cc2cccc3ccccc23)c1=O` (stereo not drawn), the 50% inhibitory concentration (IC50) in assay [7] and in assay [8] was 0.303 µM (active) each time.
